Results reported in patent US11160279B2, “Method of controlling herbicide resistant weeds” (Sumitomo Chemical Company, Limited, priority 2018, dated 2021).

Key:
Assay type in all cases: in vivo
[1] = tested on: Amaranthus palmeri having an Arg128Met mutation in PPO2; test: Soil surface treatment on the day the weed is sown, soybean sown 7 days later, greenhouse pot test (Example 1); details: 10, 20, 40, or 80 g/ha applied to soil surface, 200 L/ha aqueous dilution; soybean sown after 7 days; examined after 14 days
Source text: Amaranthus palmeri having an Arg128Met mutation in PPO2 is sown in a plastic pot. On the same day, a compound X is applied to the surface of soil in an amount of 10, 20, 40, or 80 g/ha by spraying 200 L/ha of an aqueous dilution containing the compound X. Then, the weeds are cultivated in a greenhouse and soybean seeds are sown after 7 days, to examine the effects on the weeds and phytotoxic effects on soybean after 14 days.

[2] = tested on: Amaranthus palmeri having an Arg128Met mutation in PPO2; test: Soil surface treatment on the day weed and soybean are sown, greenhouse pot test (Example 2); details: 10, 20, 40, or 80 g/ha applied to soil surface on day of sowing, 200 L/ha aqueous dilution; examined after 21 days
Source text: Amaranthus palmeri having an Arg128Met mutation in PPO2 and soybean are sown in a plastic pot. On the same day, a compound X is applied to the surface of soil in an amount of 10, 20, 40, or 80 g/ha by spraying 200 L/ha of an aqueous dilution containing the compound X. Then, the weeds and soybean are cultivated in a greenhouse to examine the effects on the weeds and phytotoxic effects on soybean after 21 days.

[3] = tested on: Amaranthus palmeri having an Arg128Met mutation in PPO2; test: Foliar treatment 21 days after sowing weed and soybean, greenhouse pot test (Example 3); details: 10, 20, 40, or 80 g/ha foliar treatment 21 days after sowing, 200 L/ha aqueous dilution; examined 14 days after the treatment
Source text: Amaranthus palmeri having an Arg128Met mutation in PPO2 and soybean are sown in a plastic pot. Then, the weeds and soybean are cultivated in a greenhouse. A compound X is applied in an amount of 10, 20, 40, or 80 g/ha by spraying 200 L/ha of an aqueous dilution containing the compound X to perform foliar treatment 21 days after the sowing. Then, the weeds and soybean are cultivated in a greenhouse to examine the effects on the weeds and phytotoxic effects on soybean 14 days after the treatment.

Measured: effects on the weeds (herbicidal effect)

CCOC(=O)COc1ncccc1Oc1cc(-n2c(=O)cc(C(F)(F)F)n(C)c2=O)c(F)cc1Cl [compound X, Ethyl [3-[2-chloro-4-fluoro-5-(1-methyl-6-trifluoromethyl-2,4-dioxo-1,2,3,4-tetrahydropyrimidine-3-yl)phenoxy]-2-pyridyloxy]acetate]
valuable effect: all assays above
